Results: patent publication US9145399B2, “Substituted bicyclic triazole derivatives as gamma secretase modulators” (Janssen Pharmaceuticals, Inc., priority 2010, dated 2015)

Key:
[1] = test system: Aβ42; experiment: Screening for γ-secretase-modulating activity in SKNBE2 cells carrying APP 695 wild type: Aβ42 in cell supernatant (Alphalisa); type: cell-based; conditions: overnight incubation
Summary of the method: (§1)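 SKNBE2 cells expressing wild-type APP695 were incubated overnight at 37° C with test compound at several concentrations. Aβ42 and Aβtotal in supernatant were measured by AlphaLISA sandwich immunoassays. IC50 came from 4-parameter non-linear fits of percent of compound-free control versus log concentration.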

[2] = test system: Aβtotal; experiment: Screening for γ-secretase-modulating activity in SKNBE2 cells carrying APP 695 wild type: Aβtotal in cell supernatant (Alphalisa); type: cell-based; conditions: overnight incubation
Summary of the method: as §1

[3] = test system: Aβ42; experiment: In vivo efficacy: Aβ42 lowering in brain of non-transgenic mice after single oral dose (ELISA); parameters: species or system mouse; conditions: Mus musculus; dose 30 mg/kg oral dosing; soluble brain fraction, animals sacrificed after 4 h; untreated animals (Ctrl) set at 100; read-out: Aβ42 (% vs Ctrl) _Mean
Text: (§2) To determine whether acute administration of an Aβ42 lowering agent would reduce Aβ42 levels in vivo, non-transgenic rodents, e.g. mice or rats were used. Animals treated with the Aβ42 lowering agent were examined and compared to those untreated or treated with vehicle and brain levels of soluble Aβ42 and total Aβ were quantitated by standard techniques, for example, using ELISA. Treatment periods varied from hours (h) to days and were adjusted based on the results of the Aβ42 lowering once a time course of onset of effect could be established.
(§3) A typical protocol for measuring Aβ42 lowering in vivo is shown but it is only one of many variations that could be used to optimize the levels of detectable Aβ. For example, Aβ42 lowering compounds were formulated in 20% of Captisol® (a sulfobutyl ether of β-cyclodextrin) in water or 20% hydroxypropyl β cyclodextrin. The Aβ42 lowering agents were administered as a single oral dose or by any acceptable route of administration to overnight fasted animals. After 4 h, the animals were sacrificed and Aβ42 levels were analysed.
(§4) Blood was collected by decapitation and exsanguinations in EDTA-treated collection tubes. Blood was centrifuged at 1900 g for 10 minutes (min) at 4° C. and the plasma recovered and flash frozen for later analysis. The brain was removed from the cranium and hindbrain. The cerebellum was removed and the left and right hemisphere were separated. The left hemisphere was stored at −18° C. for quantitative analysis of test compound levels. The right hemisphere was rinsed with phosphate-buffered saline (PBS) buffer and immediately frozen on dry ice and stored at −80° C. until homogenization for biochemical assays.
(§5) Mouse brains from non-transgenic animals were resuspended in 8 volumes of 0.4% DEA (diethylamine)/50 mM NaCl containing protease inhibitors (Roche-11873580001 or 04693159001) per gram of tissue, e.g. for 0.158 g brain, add 1.264 ml of 0.4% DEA. All samples were homogenized in the FastPrep-24 system (MP Biomedicals) using lysing matrix D (MPBio #6913-100) at 6 m/s for 20 seconds. Homogenates were centrifuged at 221.300×g for 50 min. The resulting high speed supernatants were then transferred to fresh eppendorf tubes. Nine parts of supernatant were neutralized with 1 part 0.5 M Tris-HCl pH 6.8 and used to quantify Aβtotal and Aβ42.
(§6) To quantify the amount of Aβtotal and Aβ42 in the soluble fraction of the brain homogenates, Enzyme-Linked-Immunosorbent-Assays were used. Briefly, the standards (a dilution of synthetic Aβ1-40 and Aβ1-42, Bachem) were prepared in 1.5 ml Eppendorf tube in Ultraculture, with final concentrations ranging from 10000 to 0.3 pg/ml. The samples and standards were co-incubated with HRPO-labelled N-terminal antibody for Aβ42 detection and with the biotinylated mid-domain antibody 4G8 for Aβtotal detection. 50 μl of conjugate/sample or conjugate/standards mixtures were then added to the antibody-coated plate (the capture antibodies selectively recognize the C-terminal end of Aβ42, antibody JRF/cAβ42/26, for Aβ42 detection and the N-terminus of Aβ, antibody JRF/rAβ/2, for Aβtotal detection). The plate was allowed to incubate overnight at 4° C. in order to allow formation of the antibody-amyloid complex. Following this incubation and subsequent wash steps the ELISA for Aβ42 quantification was finished by addition of Quanta Blu fluorogenic peroxidase substrate according to the manufacturer's instructions (Pierce Corp., Rockford, Il). A reading was performed after 10 to 15 min (excitation 320 nm/emission 420 nm).
In this model at least 20% Aβ42 lowering compared to untreated animals would be advantageous.
The results are shown in Table 4 (dose 30 mg/kg oral dosing) (value for untreated animals as control (Ctrl) was set at 100): […]

[4] = test system: Aβtotal; experiment: In vivo efficacy: Aβtotal in brain of non-transgenic mice after single oral dose (ELISA); parameters: species or system mouse; conditions: Mus musculus; dose 30 mg/kg oral dosing; soluble brain fraction, animals sacrificed after 4 h; untreated animals (Ctrl) set at 100; read-out: Aβtotal (% vs Ctrl)_Mean
Text: as §2, §3, §4, §5, §6
For Aβtotal detection, a Streptavidine-Peroxidase-Conjugate was added, followed 60 min later by an additional wash step and addition of Quanta Blu fluorogenic peroxidase substrate according to the manufacturer's instructions (Pierce Corp., Rockford, Ill). A reading was performed after 10 to 15 min (excitation 320 nm/emission 420 nm). […]

[5] = Homo sapiens, SKNBE2, SKNBE2 cells carrying APP 695 wild type

SMILES | IC50 [1, 5] | IC50 ([2]; Homo sapiens) | response vs control in vivo at 30 mg/kg [3] | response vs control in vivo at 30 mg/kg [4] | melting point | IC50 ([1]; SKNBE2 cells carrying APP 695 wild type) | IC50 [2]
COc1cc(Nc2nc3c(-c4ccccc4C(F)(F)F)cccn3n2)ccc1-n1cnc(C)n1 [Compound 3, N-[3-methoxy-4-(3-methyl-1H-1,2,4-triazol-1-yl)phenyl]-8-[2-(trifluoromethyl)phenyl]-[1,2,4]triazolo[1,5-a]pyridin-2-amine] | 0.019 µM | > 10 µM | 75% | 95% | 195.5 °C | – | –
COc1cc(Nc2nc3n(n2)CCC[C@@H]3c2ccccc2Cl)ccc1-n1cnc(C)c1 [Compound 28, (8R)-8-(2-chlorophenyl)-5,6,7,8-tetrahydro-N-[3-methoxy-4-(4-methyl-1H-imidazol-1-yl)phenyl]-[1,2,4]triazolo[1,5-a]pyridin-2-amine] | 0.016 µM | 5.13 µM | 81% | 93% | 195 °C | – | –
COc1cc(Nc2nc3n(n2)CCC[C@H]3c2ccccc2Cl)ccc1-n1cnc(C)c1 [Compound 29, (8S)-8-(2-chlorophenyl)-5,6,7,8-tetrahydro-N-[3-methoxy-4-(4-methyl-1H-imidazol-1-yl)phenyl]-[1,2,4]triazolo[1,5-a]pyridin-2-amine] | 0.025 µM | > 10 µM | 99% | 98% | 193.2 °C | – | –
COc1cc(Nc2nc3n(n2)CCCC3c2ccccc2C(F)(F)F)ccc1-n1cnc(C)c1 (stereo not drawn) [Compound 31, 5,6,7,8-tetrahydro-N-[3-methoxy-4-(4-methyl-1H-imidazol-1-yl)phenyl]-8-[2-(trifluoromethyl)phenyl]-[1,2,4]triazolo[1,5-a]pyridin-2-amine] | 0.013 µM | 5.75 µM | 83% | 96% | 187.9 °C | – | –
Cc1cc(-c2ccc(Nc3nc4n(n3)CCCC4c3ccccc3Cl)cc2)ccn1 (stereo not drawn) [Compound 41, 8-(2-chlorophenyl)-5,6,7,8-tetrahydro-N-[4-(2-methyl-4-pyridinyl)phenyl]-[1,2,4]triazolo[1,5-a]pyridin-2-amine] | 0.028 µM | > 10 µM | 54% | 102% | 227.2 °C | – | –
COc1cc(Nc2nc3n(n2)CCCC3c2ccccc2Cl)ccc1-c1ccnc(C)c1 (stereo not drawn) [Compound 78] | – | – | 46% | 103% | 169 °C | 0.032 µM | > 10 µM
Cc1cc(-c2ccc(Nc3nc4n(n3)CCCC4c3ccc(F)cc3F)cc2)ccn1 (stereo not drawn) [Compound 81, 8-(2,4-difluorophenyl)-5,6,7,8-tetrahydro-N-[4-(2-methyl-4-pyridinyl)phenyl]-[1,2,4]triazolo[1,5-a]pyridin-2-amine] | 0.069 µM | > 10 µM | 41% | 84% | 193.7 °C | – | –
COc1cc(Nc2nc3n(n2)CCCC3c2ccc(F)cc2F)ccc1-c1ccnc(C)c1 (stereo not drawn) [Compound 82, 8-(2,4-difluorophenyl)-5,6,7,8-tetrahydro-N-[3-methoxy-4-(2-methyl-4-pyridinyl)phenyl]-[1,2,4]triazolo[1,5-a]pyridin-2-amine] | 0.039 µM | > 10 µM | 47% | 89% | 192.7 °C | – | –
COc1cc(Nc2nc3n(n2)CCOC3c2ccccc2Cl)ccc1-c1ccnc(C)c1 (stereo not drawn) [Compound 87, 8-(2-chlorophenyl)-5,6-dihydro-N-[3-methoxy-4-(2-methyl-4-pyridinyl)phenyl]-8H-[1,2,4]triazolo[5,1-c][1,4]oxazin-2-amine] | 0.035 µM | > 10 µM | 48% | 89% | 181.3 °C | – | –
Cc1cc(-c2ccc(Nc3nc4n(n3)CCCC4c3ccc(F)cc3C)cc2)ccn1 (stereo not drawn) [Compound 90, 8-(4-fluoro-2-methylphenyl)-5,6,7,8-tetrahydro-N-[4-(2-methyl-4-pyridinyl)phenyl]-[1,2,4]triazolo[1,5-a]pyridin-2-amine] | 0.056 µM | > 10 µM | 38% | 83% | 153.9 °C | – | –
COc1cc(Nc2nc3n(n2)CCCC3c2ccc(F)cc2C)ccc1-c1ccnc(C)c1 (stereo not drawn) [Compound 91, 8-(4-fluoro-2-methylphenyl)-5,6,7,8-tetrahydro-N-[3-methoxy-4-(2-methyl-4-pyridinyl)phenyl]-[1,2,4]triazolo[1,5-a]pyridin-2-amine] | 0.025 µM | 8.51 µM | 51% | 92% | 161.4 °C | – | –
COc1cc(F)cc(C2CCCn3nc(Nc4ccc(-c5ccnc(C)c5)cc4)nc32)c1 (stereo not drawn) [Compound 185, 8-(3-fluoro-5-methoxyphenyl)-5,6,7,8-tetrahydro-N-[4-(2-methyl-4-pyridinyl)phenyl]-[1,2,4]triazolo[1,5-a]pyridin-2-amine] | 0.028 µM | > 10 µM | 52% | 96% | 175.1 °C | – | –
